In PubChem BioAssay AID651760 (The Scripps Research Institute Molecular Screening Center, 2012) one finds IC50 data, which are given here for 40 compounds.

Active and inactive are the calls of the source. How the calls were made is not given here.

Chain of Hepatocyte nuclear factor 4-alpha (Homo sapiens) (P41235 whole entry, looked up): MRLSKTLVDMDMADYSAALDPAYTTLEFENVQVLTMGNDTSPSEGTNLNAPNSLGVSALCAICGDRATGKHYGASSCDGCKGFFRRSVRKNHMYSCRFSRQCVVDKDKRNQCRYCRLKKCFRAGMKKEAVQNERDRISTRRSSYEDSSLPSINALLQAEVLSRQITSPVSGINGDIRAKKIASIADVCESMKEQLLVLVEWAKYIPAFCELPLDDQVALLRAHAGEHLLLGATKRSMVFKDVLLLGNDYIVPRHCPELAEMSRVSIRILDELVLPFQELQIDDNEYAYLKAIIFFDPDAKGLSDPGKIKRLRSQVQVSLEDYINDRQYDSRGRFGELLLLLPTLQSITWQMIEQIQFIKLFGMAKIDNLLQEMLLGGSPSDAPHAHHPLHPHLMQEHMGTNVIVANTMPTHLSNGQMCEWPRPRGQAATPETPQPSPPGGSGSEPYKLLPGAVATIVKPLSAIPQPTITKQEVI

This assay concerns the target Hepatocyte nuclear factor 4-alpha (Homo sapiens) (UniProt P41235). Nature of the assay: HNF4 dimerization inhibitors, potency, dose response, counter-screen for ABHD5-PLIN5 interaction inhibitor project, biochemical, luminescence, late stage (AID 651760). To be noted: luminescence biochemical assay. Background: The purpose of a counterscreen is to sort out artefacts and off-target activity.
As for `CCN(CC)CCOCCOC(=O)C1(c2ccccc2)CCCC1`, the IC50 (commonly the point on the concentration scale where inhibition reaches its midpoint) was 6.03 µM. As for `CN(C)CCOC1(Cc2ccc(F)cc2)CCC(C(C)(C)C)CC1` (stereo not given), the figure is > 39.8 µM (inactive); as for `COc1cc(OC)cc(C(=O)NC(=S)N(Cc2ccccc2)C(C)C)c1`, > 39.8 µM (inactive). For the compound `O=c1[nH]c(C2CCN(S(=O)(=O)c3ccc(S(=O)(=O)NC4CC4)cc3)CC2)nc2c1nnn2Cc1ccc(F)cc1`, the IC50 was > 39.8 µM (inactive). `CN(C)CCCN(C(=O)CCc1ccccc1)c1nc2ccc(Br)cc2s1`: the IC50 is > 39.8 µM (inactive). The same measure for `COc1ccc(C)c2sc(N(CCN(C)C)C(=O)/C=C/c3cccs3)nc12`: “inactive”; for `NC(=NCCCCCCN=C(N)/N=C(\N)Nc1ccc(Cl)cc1)/N=C(\N)Nc1ccc(Cl)cc1`: “inactive”; for `CN(C)CCCN(C(=O)CCc1ccccc1)c1nc2ccc(Cl)cc2s1`: > 39.8 µM (inactive).

For `O=C(C[n+]1cccc(CNC(=O)c2ccc(OC(F)F)cc2)c1)Nc1cccc(C(F)(F)F)c1`, the IC50 was > 39.8 µM (inactive).

Regarding `CC1CCN(S(=O)(=O)c2ccc(NC(=O)Cc3ccccc3)cc2)CC1`, the IC50 was > 39.8 µM (inactive).

In the case of `COc1ccccc1-c1cc(C(=O)NC2CCN(C)CC2)c2ccc(Cl)c(C)c2n1`, the IC50 was > 39.8 µM (inactive). For the compound `CCOC(=O)c1c(NC(C)=O)sc2c1CCC(C=O)=C2Sc1ccccc1`, the IC50 entry was “inactive”.

Consider `CCN(CC)CCC(C)OC(c1ccccc1)c1ccccc1` (stereo not given), for which the IC50 is 5.57 µM.

Consider `CN(C)CCN(Cc1ccco1)c1ccccn1`, for which the IC50 is > 39.8 µM (inactive).

On to `C=C[C@]1(C)C[C@@H](OC(=O)CSCCN(CC)CC)[C@]2(C)C(C)CC[C@]3(CCC(=O)[C@H]32)[C@@H](C)[C@@H]1O` (stereo not given in full), for which the IC50 was > 39.8 µM (inactive). As for `COc1cc(C)c2sc3ccccc3c(=O)c2c1NCCN(C)C`, the figure is > 39.8 µM (inactive); as for `CC1=CC(C)(C)Nc2ccc(OC(=O)C(C)N3C(=O)c4ccccc4C3=O)cc21` (stereo not given), “inactive”; as for `CN1CCC(=C2c3ccccc3CC(=O)c3sccc32)CC1`, > 39.8 µM (inactive). In the case of `Cc1cc(C)c(NC(=O)CN2CCN3CCCC3C2)c(C)c1` (stereo not given), the IC50 was > 39.8 µM (inactive). As for `CCCNC(=O)Nc1ccc2c(c1)N(C)C(=O)c1ccccc1S2`, the figure is > 39.8 µM (inactive); as for `CC(=O)Nc1ccc(S(=O)(=O)N2c3ccc(F)cc3CCC2C)cc1` (stereo not given), > 39.8 µM (inactive).

Consider `Cc1nc2c(o1)CCc1ccccc1C2N1CCN(C)CC1` (stereo not given), for which the IC50 is > 39.8 µM (inactive).

On to `COc1cc2c(cc1OC)C(C)N(CCc1ccc(Cl)cc1)CC2` (stereo not given), for which the IC50 is > 39.8 µM (inactive). The same measure for `COCCN(CCOC)c1nc(N)c2c(N)nc3c(c2c1C#N)CC(=O)N3Cc1ccc(Cl)cc1`: > 39.8 µM (inactive); for `CCOc1cc(N)c(Cl)cc1C(=O)NCC1CN(Cc2ccc(F)cc2)CCO1` (stereo not given): 4.18 µM. `CCN(CC)CCOc1ccc(/C(=C(/Cl)c2ccccc2)c2ccccc2)cc1`: the IC50 is 5.09 µM.

In the case of `O=C(/C(=C/O)N=Nc1ccc(Cl)cc1)c1ccncc1`, the IC50 entry is “inactive”. Consider `CC(C)c1ccc(N2C=Nc3ccc(C(C)C)cc3C2)cc1`, for which the half-maximal inhibitory concentration (IC50) is 2.8 µM. The same measure for `COc1ccc(NC(=S)N(CCCN2CCCC2)Cc2cccn2Cc2ccc(Cl)cc2)cc1Cl`: > 39.8 µM (inactive). In the case of `Cc1ccc2nc3cc([N+](=O)[O-])cc([N+](=O)[O-])c3cc2c1`, the IC50 entry was “inactive”. On to `FC(F)(F)c1cccc(NC(=S)N(CCCN2CCCC2)Cc2cccn2Cc2ccc(Cl)cc2)c1`, for which the IC50 is > 39.8 µM (inactive). As for `CC1CCN(S(=O)(=O)c2ccc(NC(=O)Cc3cccs3)cc2)CC1`, the IC50 is > 39.8 µM (inactive).

With `CCN(CC)CCNC(=O)c1ccc(NC(=O)c2cn(-c3ccccc3)nc2-c2cccs2)cc1`, the IC50 is > 39.8 µM (inactive). As to `CCCCOC(=O)Nc1cc(C(=O)OC)ccc1C(=O)OC`, the IC50 was > 39.8 µM (inactive). Regarding `CCCCNC(=O)Nc1ccc2c(c1)N(C)C(=O)c1ccccc1S2`, the IC50 was > 39.8 µM (inactive).

For `CCOC(=O)c1c(NC(=O)/C=C/C(=O)O)sc(C)c1-c1ccc(C(C)(C)C)cc1`, the IC50 is 8.97 µM. `CC(=O)Cc1cc(O)c2ccccc2c1OC(=O)c1ccccc1`: the IC50 was 8.21 µM. For `CCN(CC)CCN(CC(=O)Nc1c(C)cc(C)cc1C)C(=O)c1ccccc1`, the IC50 is > 39.8 µM (inactive). As for `O=c1[nH]c(C2CCN(S(=O)(=O)c3ccc(F)cc3)CC2)nc2c1nnn2Cc1ccc2c(c1)OCCO2`, the figure is > 39.8 µM (inactive); as for `CC(=O)Cc1cc(O)c2ccccc2c1OC(=O)c1ccc(Br)cc1`, “inactive”.
